Reference: ChEMBL document CHEMBL3885881, “DrugMatrix”

Species: Rattus norvegicus
Experiment: DrugMatrix - Regimen: Daily Repeat
Assay type: toxicity, organism-based, Sprague-Dawley
Parameters: regimen Daily Repeat, gender Male, age 6-8 weeks
Settings: in vivo, po, route oral GAVAGE, vehicle .5 % CMC; for BASOPHIL / EOSINOPHIL / ERYTHROCYTE COUNT / HEMATOCRIT / HEMOGLOBIN / LEUKOCYTE COUNT / LYMPHOCYTE / MEAN CORPUSCULAR HEMOGLOBIN / MEAN CORPUSCULAR HEMOGLOBIN CONCENTRATION / MEAN CORPUSCULAR VOLUME / MONOCYTE / NEUTROPHIL / PLATELET COUNT: tissue Blood; for ALANINE AMINOTRANSFERASE / ALBUMIN / ALKALINE PHOSPHATASE / ASPARTATE AMINOTRANSFERASE / BLOOD UREA NITROGEN / CHLORIDE / CHOLESTEROL / CREATINE PHOSPHOKINASE / CREATININE / GLUCOSE / PHOSPHORUS / POTASSIUM / SODIUM / TOTAL BILIRUBIN / TOTAL PROTEIN: tissue Plasma
[1] = 50 mg/kg, 72 h, dose level Low, time 3 day
[2] = 50 mg/kg, 120 h, dose level Low, time 5 day
[3] = 1200 mg/kg, 72 h, dose level High, time 3 day
[4] = 1200 mg/kg, 120 h, dose level High, time 5 day

## CCN1CCC[C@H]1CNC(=O)c1cc(S(N)(=O)=O)ccc1OC [LEVOSULPIRIDE]
[1]
  BASOPHIL: 0%
  EOSINOPHIL: 0.33%
  ERYTHROCYTE COUNT: 5.59 x10E6/uL
  HEMATOCRIT: 33.77%
  HEMOGLOBIN: 13.77 G/DL
  LEUKOCYTE COUNT: 14.5 x10E3/uL
  LYMPHOCYTE: 87%
  MEAN CORPUSCULAR HEMOGLOBIN: 24.6 pg
  MEAN CORPUSCULAR HEMOGLOBIN CONCENTRATION: 40.77 G/DL
  MEAN CORPUSCULAR VOLUME: 60.4 fL
  MONOCYTE: 1.67%
  NEUTROPHIL: 11%
  PLATELET COUNT: 1162.67 x10E3/uL
  ALANINE AMINOTRANSFERASE: 41 u/L
  ALBUMIN: 3.7 G/DL
  ALKALINE PHOSPHATASE: 441.67 u/L
  ASPARTATE AMINOTRANSFERASE: 64 u/L
  BLOOD UREA NITROGEN: 13.33 mg/dL
  CHLORIDE: 106.33 MEQ/L
  CHOLESTEROL: 70.33 mg/dL
  CREATINE PHOSPHOKINASE: 137 u/L
  CREATININE: 0.5 mg/dL
  GLUCOSE: 187.67 mg/dL
  PHOSPHORUS: 11.53 mg/dL
  POTASSIUM: 6.6 MEQ/L
  SODIUM: 150.33 MEQ/L
  TOTAL BILIRUBIN: 0.57 mg/dL
  TOTAL PROTEIN: 6 G/DL
[2]
  BASOPHIL: 0%
  EOSINOPHIL: 0.33%
  ERYTHROCYTE COUNT: 6.32 x10E6/uL
  HEMATOCRIT: 37.23%
  HEMOGLOBIN: 14.57 G/DL
  LEUKOCYTE COUNT: 13.63 x10E3/uL
  LYMPHOCYTE: 80.67%
  MEAN CORPUSCULAR HEMOGLOBIN: 23.03 pg
  MEAN CORPUSCULAR HEMOGLOBIN CONCENTRATION: 39.13 G/DL
  MEAN CORPUSCULAR VOLUME: 58.9 fL
  MONOCYTE: 2.67%
  NEUTROPHIL: 16.33%
  PLATELET COUNT: 1180.67 x10E3/uL
  ALANINE AMINOTRANSFERASE: 42 u/L
  ALBUMIN: 3.7 G/DL
  ALKALINE PHOSPHATASE: 336 u/L
  ASPARTATE AMINOTRANSFERASE: 62.33 u/L
  BLOOD UREA NITROGEN: 13 mg/dL
  CHLORIDE: 106 MEQ/L
  CHOLESTEROL: 67.67 mg/dL
  CREATINE PHOSPHOKINASE: 137.33 u/L
  CREATININE: 0.57 mg/dL
  GLUCOSE: 188.67 mg/dL
  PHOSPHORUS: 10.97 mg/dL
  POTASSIUM: 6.83 MEQ/L
  SODIUM: 150.67 MEQ/L
  TOTAL BILIRUBIN: 0.4 mg/dL
  TOTAL PROTEIN: 5.97 G/DL
[3]
  BASOPHIL: 0%
  EOSINOPHIL: 0.5%
  ERYTHROCYTE COUNT: 6.49 x10E6/uL
  HEMATOCRIT: 38.15%
  HEMOGLOBIN: 15.2 G/DL
  LEUKOCYTE COUNT: 14.55 x10E3/uL
  LYMPHOCYTE: 86%
  MEAN CORPUSCULAR HEMOGLOBIN: 23.4 pg
  MEAN CORPUSCULAR HEMOGLOBIN CONCENTRATION: 39.85 G/DL
  MEAN CORPUSCULAR VOLUME: 58.75 fL
  MONOCYTE: 0.5%
  NEUTROPHIL: 13%
  PLATELET COUNT: 1325.5 x10E3/uL
  ALANINE AMINOTRANSFERASE: 42 u/L
  ALBUMIN: 4 G/DL
  ALKALINE PHOSPHATASE: 363 u/L
  ASPARTATE AMINOTRANSFERASE: 58.33 u/L
  BLOOD UREA NITROGEN: 16.67 mg/dL
  CHLORIDE: 104 MEQ/L
  CHOLESTEROL: 80 mg/dL
  CREATINE PHOSPHOKINASE: 154.33 u/L
  CREATININE: 0.6 mg/dL
  GLUCOSE: 176.67 mg/dL
  PHOSPHORUS: 12.6 mg/dL
  POTASSIUM: 7.23 MEQ/L
  SODIUM: 150 MEQ/L
  TOTAL BILIRUBIN: 0.67 mg/dL
[4]
  BASOPHIL: 0%
  EOSINOPHIL: 0.5%
  ERYTHROCYTE COUNT: 5.88 x10E6/uL
  HEMATOCRIT: 35.5%
  HEMOGLOBIN: 15 G/DL
  LEUKOCYTE COUNT: 12.3 x10E3/uL
  LYMPHOCYTE: 85.5%
  MEAN CORPUSCULAR HEMOGLOBIN: 25.5 pg
  MEAN CORPUSCULAR HEMOGLOBIN CONCENTRATION: 42.4 G/DL
  MEAN CORPUSCULAR VOLUME: 60.25 fL
  MONOCYTE: 4.5%
  NEUTROPHIL: 9.5%
  PLATELET COUNT: 1166 x10E3/uL
  ALANINE AMINOTRANSFERASE: 43 u/L
  ALBUMIN: 3.65 G/DL
  ALKALINE PHOSPHATASE: 219.5 u/L
  ASPARTATE AMINOTRANSFERASE: 64 u/L
  BLOOD UREA NITROGEN: 16 mg/dL
  CHLORIDE: 106.5 MEQ/L
  CHOLESTEROL: 65.5 mg/dL
  CREATINE PHOSPHOKINASE: 164 u/L
  CREATININE: 0.6 mg/dL
  GLUCOSE: 166.5 mg/dL
  PHOSPHORUS: 11.95 mg/dL
  POTASSIUM: 6.7 MEQ/L
  SODIUM: 151.5 MEQ/L
  TOTAL BILIRUBIN: 0.35 mg/dL
  TOTAL PROTEIN: 6 G/DL
